Laboratory results as given in patent US11739098B2 (BRISTOL-MYERS SQUIBB COMPANY, priority 2017, dated 2023).

What was measured:
Assay type in all cases: cell-based
human TLR7 = target: T1, human TLR7 (Homo sapiens, UniProt Q9NYK1); experiment: TLR7 inhibition reporter assay (HEK-Blue cells, SEAP reporter, gardiquimod stimulation); conditions: HEK-Blue cells overexpressing human TLR7, SEAP reporter, gardiquimod 7.5 μM
T1 construct: host or cells: HEK-Blue cells (HEK293-derived reporter line)
T1 sequence (Q9NYK1 27-1049): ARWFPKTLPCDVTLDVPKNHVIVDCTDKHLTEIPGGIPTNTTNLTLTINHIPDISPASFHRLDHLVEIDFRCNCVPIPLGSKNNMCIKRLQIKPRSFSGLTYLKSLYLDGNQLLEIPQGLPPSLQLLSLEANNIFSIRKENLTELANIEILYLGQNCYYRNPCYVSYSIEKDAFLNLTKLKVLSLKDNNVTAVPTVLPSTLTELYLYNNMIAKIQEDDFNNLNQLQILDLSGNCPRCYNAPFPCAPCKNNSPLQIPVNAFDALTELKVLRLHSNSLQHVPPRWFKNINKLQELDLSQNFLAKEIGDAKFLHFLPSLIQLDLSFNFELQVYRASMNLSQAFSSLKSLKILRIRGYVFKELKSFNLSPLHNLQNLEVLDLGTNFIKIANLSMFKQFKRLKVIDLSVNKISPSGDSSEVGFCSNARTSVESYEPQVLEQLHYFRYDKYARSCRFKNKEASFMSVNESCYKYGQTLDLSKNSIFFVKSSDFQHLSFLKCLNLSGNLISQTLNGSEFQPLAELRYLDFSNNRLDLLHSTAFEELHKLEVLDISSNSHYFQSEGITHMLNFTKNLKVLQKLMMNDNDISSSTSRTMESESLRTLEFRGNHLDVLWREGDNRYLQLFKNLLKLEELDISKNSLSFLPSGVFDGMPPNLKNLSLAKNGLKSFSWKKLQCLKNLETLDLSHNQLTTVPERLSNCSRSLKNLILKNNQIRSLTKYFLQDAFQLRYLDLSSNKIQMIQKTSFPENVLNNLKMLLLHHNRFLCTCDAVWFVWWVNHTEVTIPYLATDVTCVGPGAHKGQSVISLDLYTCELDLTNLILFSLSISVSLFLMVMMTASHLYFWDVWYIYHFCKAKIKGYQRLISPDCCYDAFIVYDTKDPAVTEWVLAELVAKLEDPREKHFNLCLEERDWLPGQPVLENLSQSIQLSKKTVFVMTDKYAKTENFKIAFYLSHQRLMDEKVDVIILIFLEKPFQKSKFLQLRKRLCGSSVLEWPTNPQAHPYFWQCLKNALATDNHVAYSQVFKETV
Procedure, shortened: (§1)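 Agonists (final): TLR7 gardiquimod 7.5 μM; TLR8 R848 15.9 μM; TLR9 ODN2006 5 nM. HEK-Blue reporter cells, 30 min RT compound pre-incubation, 0.05 nM–50 μM dose range, 22 h at 37 °C, colorimetric SEAP detection medium. % inhibition relative to agonist+DMSO and known-inhibitor wells.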

human TLR8 = target: T2, human TLR8 (Homo sapiens, UniProt Q9NR97); experiment: TLR8 inhibition reporter assay (HEK-Blue cells, SEAP reporter, R848 stimulation); conditions: HEK-Blue cells overexpressing human TLR8, SEAP reporter, R848 15.9 μM
T2 construct: host or cells: HEK-Blue cells (HEK293-derived reporter line)
T2 sequence (Q9NR97 27-1041): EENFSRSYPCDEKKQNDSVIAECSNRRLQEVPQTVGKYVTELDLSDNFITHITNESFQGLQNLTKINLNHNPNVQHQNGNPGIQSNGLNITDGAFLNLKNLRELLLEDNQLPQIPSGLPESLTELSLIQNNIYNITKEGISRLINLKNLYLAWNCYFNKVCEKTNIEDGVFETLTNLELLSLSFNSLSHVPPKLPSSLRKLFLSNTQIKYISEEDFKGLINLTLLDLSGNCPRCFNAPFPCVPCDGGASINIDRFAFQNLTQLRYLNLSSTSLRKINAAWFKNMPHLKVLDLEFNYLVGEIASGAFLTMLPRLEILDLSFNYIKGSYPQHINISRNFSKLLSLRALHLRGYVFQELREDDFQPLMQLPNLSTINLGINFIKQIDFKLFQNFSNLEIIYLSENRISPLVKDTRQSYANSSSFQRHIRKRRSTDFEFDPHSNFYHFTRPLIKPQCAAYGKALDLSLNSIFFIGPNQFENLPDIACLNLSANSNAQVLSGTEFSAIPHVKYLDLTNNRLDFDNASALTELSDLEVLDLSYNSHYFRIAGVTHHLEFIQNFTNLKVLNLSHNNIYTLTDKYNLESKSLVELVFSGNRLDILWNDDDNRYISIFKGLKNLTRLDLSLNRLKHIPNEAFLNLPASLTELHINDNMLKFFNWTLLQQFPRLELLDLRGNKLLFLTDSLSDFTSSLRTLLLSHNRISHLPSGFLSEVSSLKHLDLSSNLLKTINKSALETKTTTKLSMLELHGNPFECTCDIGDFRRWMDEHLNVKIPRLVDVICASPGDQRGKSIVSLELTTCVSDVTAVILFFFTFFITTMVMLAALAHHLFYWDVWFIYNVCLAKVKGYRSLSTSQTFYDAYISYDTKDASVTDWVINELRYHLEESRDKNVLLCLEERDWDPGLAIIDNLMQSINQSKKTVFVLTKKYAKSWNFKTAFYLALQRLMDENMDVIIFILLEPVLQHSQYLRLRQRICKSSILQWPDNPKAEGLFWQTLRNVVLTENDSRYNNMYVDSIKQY
Procedure, shortened: as §1

human TLR9 = target: T3, human TLR9 (Homo sapiens, UniProt Q9NR96); experiment: TLR9 inhibition reporter assay (HEK-Blue cells, SEAP reporter, ODN2006 stimulation); conditions: HEK-Blue cells overexpressing human TLR9, SEAP reporter, ODN2006 5 nM
T3 construct: host or cells: HEK-Blue cells (HEK293-derived reporter line)
T3 sequence (Q9NR96 26-1032): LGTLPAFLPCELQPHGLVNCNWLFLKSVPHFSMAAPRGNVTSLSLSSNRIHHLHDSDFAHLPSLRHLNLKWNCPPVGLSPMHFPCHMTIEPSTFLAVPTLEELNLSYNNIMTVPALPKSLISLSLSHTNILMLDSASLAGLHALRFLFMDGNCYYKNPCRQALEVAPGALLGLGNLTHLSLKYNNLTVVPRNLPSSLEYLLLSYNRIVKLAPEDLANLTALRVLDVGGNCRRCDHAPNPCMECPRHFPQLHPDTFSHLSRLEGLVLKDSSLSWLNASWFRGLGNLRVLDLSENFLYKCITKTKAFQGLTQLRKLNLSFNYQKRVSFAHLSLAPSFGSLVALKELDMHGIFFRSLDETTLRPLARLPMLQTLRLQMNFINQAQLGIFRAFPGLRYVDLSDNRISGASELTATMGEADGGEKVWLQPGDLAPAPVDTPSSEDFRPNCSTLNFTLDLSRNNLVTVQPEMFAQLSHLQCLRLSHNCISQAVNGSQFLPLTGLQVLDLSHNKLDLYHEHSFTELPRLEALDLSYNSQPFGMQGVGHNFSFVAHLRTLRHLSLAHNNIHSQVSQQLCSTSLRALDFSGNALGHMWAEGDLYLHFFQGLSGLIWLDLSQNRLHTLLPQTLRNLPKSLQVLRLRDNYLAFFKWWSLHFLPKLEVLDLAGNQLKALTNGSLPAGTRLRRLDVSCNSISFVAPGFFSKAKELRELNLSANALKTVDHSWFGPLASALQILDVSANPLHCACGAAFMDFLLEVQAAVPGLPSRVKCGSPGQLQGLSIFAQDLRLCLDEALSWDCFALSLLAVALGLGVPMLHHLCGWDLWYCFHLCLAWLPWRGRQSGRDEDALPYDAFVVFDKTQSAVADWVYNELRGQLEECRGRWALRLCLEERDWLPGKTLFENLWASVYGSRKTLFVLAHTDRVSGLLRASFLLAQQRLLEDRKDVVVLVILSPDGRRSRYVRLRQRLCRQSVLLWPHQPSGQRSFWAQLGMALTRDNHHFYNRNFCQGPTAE
Procedure, shortened: as §1

Compound | IC50 (human TLR7) [nM] | IC50 (human TLR8) [nM] | IC50 (human TLR9) [nM]
CNC(=O)CN1CCC(c2ccc3[nH]c(-c4cc(OC)n5ccnc5c4)c(C(C)C)c3c2)CC1 [Example 356, 2-(4-(3-isopropyl-2-(5-methoxyimidazo[1,2-a]pyridin-7-yl)-1H-indol-5-yl)piperidin-1-yl)-N-methylacetamide] | 100 to 1000 | 100 to 1000 | 100 to 1000
Cc1nc2cc(-c3[nH]c4ccc(C5CCN(C6COC6)CC5)cc4c3C(C)C)ccn2n1 [Example 728, 7-(3-isopropyl-5-(1-(oxetan-3-yl)piperidin-4-yl)-1H-indol-2-yl)-2-methyl-[1,2,4]triazolo[1,5-a]pyridine] | < 100 | 1000 to 50000 | 1000 to 50000
CC(C)c1c(-c2ccnc3[nH]ncc23)[nH]c2ccc(C3CCN(CCCN(C)C)CC3)cc12 [Example 845, 3-(4-(3-isopropyl-2-(1H-pyrazolo[3,4-b]pyridin-4-yl)-1H-indol-5-yl)piperidin-1-yl)-N,N-dimethylpropan-1-amine] | 100 to 1000 | 100 to 1000 | 100 to 1000
COc1c(C)c(-c2[nH]c3ccc(C4CCN(C5COC5)CC4)cc3c2C(C)C)nn2ncnc12 [Example 731, 6-(3-isopropyl-5-(1-(oxetan-3-yl)piperidin-4-yl)-1H-indol-2-yl)-8-methoxy-7-methyl-[1,2,4]triazolo[1,5-b]pyridazine] | < 100 | < 100 | 1000 to 50000
CC(C)c1c(-c2ccnc3[nH]ncc23)[nH]c2ccc(C3CCN(Cc4cc(F)cnc4Cl)CC3)cc12 [Example 913, 4-(5-(1-((2-chloro-5-fluoropyridin-3-yl)methyl)piperidin-4-yl)-3-isopropyl-1H-indol-2-yl)-1H-pyrazolo[3,4-b]pyridine] | 100 to 1000 | 100 to 1000 | > 50000
COC(=O)C1CC(N2CCC(c3ccc4[nH]c(-c5ccnc6[nH]ncc56)c(C(C)C)c4c3)CC2)CCN1 (stereo not drawn) [Example 831, methyl 4-(3-isopropyl-2-(1H-pyrazolo[3,4-b]pyridin-4-yl)-1H-indol-5-yl)-[1,4′-bipiperidine]-2′-carboxylate] | < 100 | < 100 | 100 to 1000
CC(C)c1c(-c2ccc3cnnn3c2)[nH]c2ccc(C3CCN(C4COC4)CC3)cc12 [Example 734, 6-(3-isopropyl-5-(1-(oxetan-3-yl)piperidin-4-yl)-1H-indol-2-yl)-[1,2,3]triazolo[1,5-a]pyridine] | 100 to 1000 | 100 to 1000 | 1000 to 50000
CNC(=O)CN1CCC(c2ccc3[nH]c(-c4cn5cc(C)nc5cc4C)c(C(C)C)c3c2)CC1 [Example 374, 2-(4-(2-(2,7-dimethylimidazo[1,2-a]pyridin-6-yl)-3-isopropyl-1H-indol-5-yl)piperidin-1-yl)-N-methylacetamide] | < 100 | 100 to 1000 | 100 to 1000
Cc1cc(-c2[nH]c3ccc(C4CCN(C(=O)CCN5CC6(COC6)C5)CC4)cc3c2C(C)C)cn2nnnc12 [Example 631, 1-(4-(3-isopropyl-2-(8-methyltetrazolo[1,5-a]pyridin-6-yl)-1H-indol-5-yl)piperidin-1-yl)-3-(2-oxa-6-azaspiro[3.3]heptan-6-yl)propan-1-one] | < 100 | < 100 | 100 to 1000
CC(C)c1c(-c2ccc3nnnn3c2)[nH]c2ccc(C3CCNCC3)cc12 [Example 80, 6-(3-isopropyl-5-(piperidin-4-yl)-1H-indol-2-yl)tetrazolo[1,5-a]pyridine] | < 100 | 100 to 1000 | 1000 to 50000
CNC(=O)CN1CCC(c2ccc3[nH]c(-c4ccc5nccn5c4)c(C(C)C)c3c2)CC1 [Example 403, 2-(4-(2-(imidazo[1,2-a]pyridin-6-yl)-3-isopropyl-1H-indol-5-yl)piperidin-1-yl)-N-methylacetamide] | < 100 | < 100 | 1000 to 50000
Cc1cc(-c2[nH]c3ccc(C4CCN(C(=O)CCN5CCS(=O)(=O)CC5)CC4)cc3c2C(C)C)cn2nnnc12 [Example 634, 3-(1,1-dioxidothiomorpholino)-1-(4-(3-isopropyl-2-(8-methyltetrazolo[1,5-a]pyridin-6-yl)-1H-indol-5-yl)piperidin-1-yl)propan-1-one] | < 100 | 100 to 1000 | > 50000
CC(C)c1c(-c2ccn3nncc3c2)[nH]c2ccc(C3CCNCC3)cc12 [Example 81, 5-(3-isopropyl-5-(piperidin-4-yl)-1H-indol-2-yl)-[1,2,3]triazolo[1,5-a]pyridine] | < 100 | 100 to 1000 | 1000 to 50000
Cc1cc(-c2[nH]c3ccc(C4CCN(C(=O)CCN(C)C(C)C)CC4)cc3c2C(C)C)cn2nnnc12 [Example 624, 3-(isopropyl(methyl)amino)-1-(4-(3-isopropyl-2-(8-methyltetrazolo[1,5-a]pyridin-6-yl)-1H-indol-5-yl)piperidin-1-yl)propan-1-one] | < 100 | < 100 | 100 to 1000
